# Reference: US11976019B2 (Acuitas Therapeutics, Inc., priority 2020, dated 2024)
# Marks after values point to notes of the source that are not given here.
# Tests used:
# [1] = Determination of pKa of formulated lipids (TNS fluorescence assay in lipid nanoparticles); format: physicochemical; conditions: cationic lipid formulated in LNP (cationic lipid/DSPC/cholesterol/PEG-lipid 50/10/38.5/1.5 mol %); pH of half-maximal TNS fluorescence
# Description: As described elsewhere, the pKa of formulated cationic lipids is correlated with the effectiveness of LNPs for delivery of nucleic acids (see Jayaraman et al, Angewandte Chemie, International Edition (2012), 51(34), 8529-8533; Semple et al, Nature Biotechnology 28, 172-176 (2010)). The preferred range of pKa is ˜5 to ˜7. The pKa of each cationic lipid was determined in lipid nanoparticles using an assay based on fluorescence of 2-(p-toluidino)-6-napthalene sulfonic acid (TNS). Lipid nanoparticles comprising cationic lipid/DSPC/cholesterol/PEG-lipid (50/10/38.5/1.5 mol %) in PBS at a concentration of 0.4 mM total lipid were prepared using the in-line process as described in Example 1. TNS was prepared as a 100 μM stock solution in distilled water. Vesicles were diluted to 24 μM lipid in 2 mL of buffered solutions containing, 10 mM HEPES, 10 mM IVIES, 10 mM ammonium acetate, 130 mM NaCl, where the pH ranged from 2.5 to 11. An aliquot of the TNS solution was added to give a final concentration of 1 μM and following vortex mixing fluorescence intensity was measured at room temperature in a SLM Aminco Series 2 Luminescence Spectrophotometer using excitation and emission wavelengths of 321 nm and 445 nm. A sigmoidal best fit analysis was applied to the fluorescence data and the pKa was measured as the pH giving rise to half-maximal fluorescence intensity.
# [2] = test system: luciferase expression in the liver; assay: In vivo luciferase mRNA expression rodent model (liver luciferase after tail vein injection of mRNA-LNP); set-up: species or system mice (C57BL/6 or CD-1); conditions: liver 4 hours after administration, FLuc mRNA LNP; for Liver Luc @ 1.0 mg/kg: 1.0 mg mRNA/kg
# Description: Lipid nanoparticles were prepared and tested according to the general procedures described in PCT Pub. Nos. WO 2015/199952 and WO 2017/004143, the full disclosures of which are incorporated herein by reference. Briefly, cationic lipid, DSPC, cholesterol and PEG-lipid were solubilized in ethanol at a molar ratio of about 50:10:38.5:1.5 or about 47.5:10:40.8:1.7. Lipid nanoparticles (LNP) were prepared at a total lipid to mRNA weight ratio of approximately 10:1 to 30:1. The mRNA is diluted to 0.2 mg/mL in 10 to 50 mM citrate or acetate buffer, pH 4. Syringe pumps were used to mix the ethanolic lipid solution with the mRNA aqueous solution at a ratio of about 1:5 to 1:3 (vol/vol) with total flow rates above 15 mL/min. The ethanol was then removed and the external buffer replaced with PBS by dialysis. Finally, the lipid nanoparticles were filtered through a 0.2 μm pore sterile filter. Lipid nanoparticle particle size was approximately 55-95 nm diameter, and in some instances approximately 70-90 nm diameter as determined by quasi-elastic light scattering using a Malvern Zetasizer Nano ZS (Malvern, UK).
# Studies were performed in 6-8 week old female C57BL/6 mice (Charles River) or 8-10 week old CD-1 (Harlan) mice (Charles River) according to guidelines established by an institutional animal care committee (ACC) and the Canadian Council on Animal Care (CCAC). Varying doses of mRNA-lipid nanoparticle were systemically administered by tail vein injection and animals euthanized at a specific time point (e.g., 4 hours) post-administration. Liver and spleen were collected in pre-weighed tubes, weights determined, immediately snap frozen in liquid nitrogen and stored at −80° C. until processing for analysis.
# For liver, approximately 50 mg was dissected for analyses in a 2 mL FastPrep tubes (MP Biomedicals, Solon Ohio). ¼″ ceramic sphere (MP Biomedicals) is added to each tube and 500 μL of Glo Lysis Buffer—GLB (Promega, Madison Wis.) equilibrated to room temperature is added to liver tissue. Liver tissues were homogenized with the FastPrep24 instrument (MP Biomedicals) at 2×6.0 m/s for 15 seconds. Homogenate was incubated at room temperature for 5 minutes prior to a 1:4 dilution in GLB and assessed using SteadyGlo Luciferase assay system (Promega). Specifically, 50 μL of diluted tissue homogenate was reacted with 50 μL of SteadyGlo substrate, shaken for 10 seconds followed by 5 minute incubation and then quantitated using a CentroXS^3 LB 960 luminometer (Berthold Technologies, Germany). The amount of protein assayed was determined by using the BCA protein assay kit (Pierce, Rockford Ill.). Relative luminescence units (RLU) were then normalized to total μg protein assayed. To convert RLU to ng luciferase a standard curve was generated with QuantiLum Recombinant Luciferase (Promega).
# The FLuc mRNA (L-6107 or L-7202) from Trilink Biotechnologies will express a luciferase protein, originally isolated from the firefly, Photinus pyralis. FLuc is commonly used in mammalian cell culture to measure both gene expression and cell viability. It emits bioluminescence in the presence of the substrate, luciferin. This capped and poly-adenylated mRNA was fully substituted with respect to uridine and/or cytidine nucleosides.
# Representative compounds of the disclosure shown in Table 2 were formulated using the following molar ratio: 50% cationic lipid/10% distearoylphosphatidylcholine (DSPC)/38.5% Cholesterol/1.5% PEG lipid 2-[2-(ω-methoxy(polyethyleneglycol2000)ethoxy]-N,N-ditetradecylacetamide) or 47.5% cationic lipid/10% DSPC/40.7% Cholesterol/1.8% PEG lipid. Relative activity was determined by measuring luciferase expression in the liver 4 hours following administration via tail vein injection as described in Example 1. The activity was compared at a dose of 1.0 or 0.5 mg mRNA/kg and expressed as ng luciferase/g liver measured 4 hours after administration, as described in Example 1. Compound numbers in Table 2 refer to the compound numbers of Table 1.
# [3] = test system: luciferase expression in the liver; assay: as above; set-up: species or system mice (C57BL/6 or CD-1); conditions: liver 4 hours after administration, FLuc mRNA LNP
pKa [1],SMILES,Liver Luc @ 1.0 mg/kg [2],Liver Luc determined at 0.3 mg/kg [3],Liver Luc determined at 0.5 mg/kg [2]
6.11,CCCCCCCCOC(=O)CCN(CCCCN(C)C)C(CCCCCCCCC(=O)OCC(CCCC)CCCCCC)CCCCCCCCC(=O)OCC(CCCC)CCCCCC (centres unmarked) [Compound I-1],24031 ± 4777 ng luc/g liver,,
6.67,"CCCCCCCCOC(=O)CCN(CCCCCN(C)C)C(CCCCCCCCC(=O)OCC(CCCC)CCCCCC)CCCCCCCCC(=O)OCC(CCCC)CCCCCC (centres unmarked) [Compound I-2, bis(2-butyloctyl) 10-((5-(dimethylamino)pentyl)(3-(octyloxy)-3-oxopropyl)amino)nonadecanedioate]",682 ± 147 ng luc/g liver,122 ± 18 ng luc/g liver,
6.17,"CCCCCCCCOC(=O)CCN(CCCCN(C)C)C(CCCCCC(=O)OCC(CCCCCC)CCCCCCCC)CCCCCC(=O)OCC(CCCCCC)CCCCCCCC (centres unmarked) [Compound I-4, bis(2-hexyldecyl) 7-((4-(dimethylamino)butyl)(3-(octyloxy)-3-oxopropyl)amino)tridecanedioate]",46932 ± 17399 ng luc/g liver,,
6.08,"CCCCCCCCC(CCCCCC)C(=O)OCCCCCCN(CCCCN(C)C)C(CCCCCCCCC(=O)OCC(CCCC)CCCCCC)CCCCCCCCC(=O)OCC(CCCC)CCCCCC (centres unmarked) [Compound I-5, bis(2-butyloctyl) 10-((4-(dimethylamino)butyl)(6-((2-hexyldecanoyl)oxy)hexyl)amino)nonadecanedioate]",11720 ± 2439 ng luc/g liver,,
6.22,CCCCCCCCCN(CCCCN(C)C)C(CCCCCCCCC(=O)OCC(CCCC)CCCCCC)CCCCCCCCC(=O)OCC(CCCC)CCCCCC (centres unmarked) [Compound I-6],11290 ± 6455 ng luc/g liver,4093 ± 1036 ng luc/g liver,
6.8,"CCCCCCC(CCCC)COC(=O)CCCCCCCCC(CCCCCCCCC(=O)OCC(CCCC)CCCCCC)N(CCCN(C)C)C(=O)CCCCC(=O)OC (centres unmarked) [Compound I-14, bis(2-butyloctyl) 10-(N-(3-(dimethylamino)propyl)-6-methoxy-6-oxohexanamido)nonadecanedioate]",,,669 ± 575* *determined at 0.5 mg/kg ng luc/g liver
5.96,"CCCCCCC(CCCC)COC(=O)CCCCCCCCC(CCCCCCCCC(=O)OCC(CCCC)CCCCCC)N(CCN(C)C)C(=O)CCCCC(=O)OC (centres unmarked) [Compound I-15, bis(2-butyloctyl) 10-(N-(2-(dimethylamino)ethyl)-6-methoxy-6-oxohexanamido)nonadecanedioate]",21357 ± 15325 ng luc/g liver,,
6.25,"CCCCCCCCC(CCCCCC)COC(=O)CCCCCC(CCCCCC(=O)OCC(CCCCCC)CCCCCCCC)N(CCN(C)C)C(=O)CCCCC(=O)OC (centres unmarked) [Compound I-16, bis(2-hexyldecyl) 7-(N-(2-(dimethylamino)ethyl)-6-methoxy-6-oxohexanamido)tridecanedioate]",66763 ± 15823 ng luc/g liver,,
6.78,"CCCCCCCCC(CCCCCC)COC(=O)CCCCCC(CCCCCC(=O)OCC(CCCCCC)CCCCCCCC)N(CCCN(C)C)C(=O)CCCCCCC(=O)OC (centres unmarked) [Compound I-17, bis(2-hexyldecyl) 7-(N-(3-(dimethylamino)propyl)-8-methoxy-8-oxooctanamido)tridecanedioate]",26691 ± 13186 ng luc/g liver,,
6.02,"CCCCCCCCC(CCCCCC)COC(=O)CCCCCC(CCCCCC(=O)OCC(CCCCCC)CCCCCCCC)N(CCN(C)C)C(=O)CCCCCCC(=O)OC (centres unmarked) [Compound I-18, bis(2-hexyldecyl) 7-(N-(2-(dimethylamino)ethyl)-8-methoxy-8-oxooctanamido)tridecanedioate]",40650 ± 11479 ng luc/g liver,,
5.95,"CCCCCCCCC(CCCCCC)COC(=O)CCCCCC(CCCCCC(=O)OCC(CCCCCC)CCCCCCCC)N(CCCC(=O)N(CCCCCC)CCCCCC)CCN(C)C (centres unmarked) [Compound I-19, bis(2-hexyldecyl) 7-((4-(dihexylamino)-4-oxobutyl)(2-(dimethylamino)ethyl)amino)tridecanedioate]",32706 ± 4621 ng luc/g liver,,
6.48,"CCCCCCC(CCCC)COC(=O)CCCCCC(CCCCCC(=O)OCC(CCCC)CCCCCC)N(CCCC(=O)N(CCCCCC)CCCCCC)CCCN(C)C (centres unmarked) [Compound I-20, bis(2-butyloctyl) 7-((4-(dihexylamino)-4-oxobutyl)(3-(dimethylamino)propyl)amino)tridecanedioate]",17095 ± 8181 ng luc/g liver,4140 ± 1117 ng luc/g liver,
6.4,"CCCCCCC(CCCC)COC(=O)CCCCCCCCC(CCCCCCCCC(=O)OCC(CCCC)CCCCCC)N(CCCC(=O)N(CCCCCC)CCCCCC)CCCN(C)C (centres unmarked) [Compound I-21, bis(2-butyloctyl) 10-((4-(dihexylamino)-4-oxobutyl)(3-(dimethylamino)propyl)amino)nonadecanedioate]",20223 ± 5982 ng luc/g liver,7723 ± 1714 ng luc/g liver,
6.28,"CCCCCCCCC(CCCCCC)C(=O)OCCCCCCN(CCCCN(C)C)C(CCCCCCCCC(=O)OCC(CC)CCCC)CCCCCCCCC(=O)OCC(CC)CCCC (centres unmarked) [Compound I-22, bis(2-ethylhexyl) 10-((4-(dimethylamino)butyl)(6-((2-hexyldecanoyl)oxy)hexyl)amino)nonadecanedioate]",17654 ± 8167 ng luc/g liver,5291 ± 1348 ng luc/g liver,
6.33,"CCCCCCCCN(CCCCN(C)C)C(CCCCCCCCC(=O)OCC(CCCC)CCCCCC)CCCCCCCCC(=O)OCC(CCCC)CCCCCC (centres unmarked) [Compound I-23, bis(2-butyloctyl) 10-((4-(dimethylamino)butyl)(octyl)amino)nonadecanedioate]",,,553 ± 153* *determined at 0.5 mg/kg ng luc/g liver
